Test results published in US11629171B2, “Beta-hairpin peptidomimetics” (POLYPHOR AG, priority 2017, dated 2023).
≈ marks a conversion by molar mass, not a printed value. Where a SMILES comes first, the peptide text is derived from it. Bridges are numbered along the chain shown (N, C = ends). Roman numbers before positions name the chains, in order. [ ]: non-standard residue; d: D form. The star is where a group is joined. Thr(ol) = C[C@@H](O)[C@H](N)CO; Pen = CC(C)(S)[C@H](N)C(=O)O; Tle = CC(C)(C)[C@H](N)C(=O)O; Hiv = CC(C)[C@H](O)C(=O)O; dDab = NCC[C@@H](N)C(=O)O; hSer = N[C@@H](CCO)C(=O)O; Orn = NCCC[C@H](N)C(=O)O; Dab = NCC[C@H](N)C(=O)O; Dap = NC[C@H](N)C(=O)O; NHCH2CH2OH = OCCN*; OiPr = CC(C)O*

Experiments:
Format in all cases: cell-based
[1] = system: Escherichia coli ATCC 25922; details: ATCC 25922
How it was run: (§1)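 Two-fold peptide dilutions in polysorbate 80-containing (0.002% final) cation-adjusted Mueller-Hinton II broth were inoculated with about 10^6 CFU/mL. The MIC was taken as the lowest concentration, in μg/mL, preventing visible growth at 18-20 hours and 35° C.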

[2] = system: Acinetobacter baumannii 872842; details: 872842
How it was run: as §1

[3] = system: Pseudomonas aeruginosa ATCC 27853; details: ATCC 27853
How it was run: as §1

[4] = system: Klebsiella pneumoniae SSI #3010; details: SSI #3010
How it was run: as §1

Escherichia coli 926415 = details: 926415
How it was run: as §1

[5] = system: Enterobacter cloacae 848840; details: 848840
How it was run: as §1

[6] = system: Acinetobacter baumannii DSM 30008; details: DSM 30008
How it was run: as §1

[7] = system: Klebsiella pneumoniae 968733; details: 968733
How it was run: as §1

[8] = system: human red blood cells (hRBC); test: Hemolysis; details: red cells of human, 1 h, 200
How it was run: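 hRBC washed 4× in PBS; 200 μg/mL peptide + 20% (v/v) hRBC, 1 h, 37° C, 300 rpm. Spin, supernatant ~7.5-fold diluted, OD540 blank corrected. % hemolysis = OD540 peptide / OD540 Triton X-100 × 100.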

Row | SMILES | MIC [1] [µg/mL] | MIC [2] [µg/mL] | MIC [3] [µg/mL] | MIC [4] [µg/mL] | MIC (Escherichia coli 926415) [µg/mL] | MIC [5] [µg/mL] | MIC [6] [µg/mL] | MIC [7] [µg/mL] | Hemolysis at 200 μg/mL [8] [%] | Escherichia coli ATCC 25922 MIC [1] [µg/mL] | Pseudomonas aeruginosa ATCC 27853 MIC [3] [µg/mL] | Klebsiella pneumoniae SSI #3010 MIC [4] [µg/mL] | Acinetobacter baumannii DSM 30008 MIC [6] [µg/mL]
1 | CC(=O)N[C@H](C(=O)N[C@H]1CCCNC(=O)[C@@H](CCC(=O)O)NC(=O)[C@H](C(C)(C)C)NC(=O)[C@H](CO)NC(=O)[C@H](Cc2c[nH]c3ccccc23)NC(=O)[C@H](CCO)NC(=O)[C@@H](CCN)NC(=O)[C@H](CCC(=O)N[C@@H](CCN)C(=O)N[C@H](C(=O)N[C@@H](CN)C(=O)N[C@H]2CCNC(=O)[C@H]([C@@H](C)O)NC(=O)[C@H](CCN)NC(=O)[C@H](CCN)NC(=O)[C@H](CC(C)C)NC(=O)[C@@H](CC(C)C)NC(=O)[C@H](CCN)NC2=O)[C@@H](C)O)NC(=O)[C@H](CO)NC(=O)[C@H](Cc2ccc(O)cc2)NC1=O)C(C)C [Ex. 21] (I: Ac-V[Orn]YSE[dDab][hSer]WS[Tle][dE] / II: [Dab]T[Dap][Dab][Dab][dL]L[Dab][Dab]T; lactam I:2-I:C, II:4-II:C; amide I:5-II:N) | 0.25 (≈ 0.106 µM) | 2 (≈ 0.852 µM) | 0.5 (≈ 0.213 µM) | 0.5 (≈ 0.213 µM) | 8 (≈ 3.41 µM) | 0.5 (≈ 0.213 µM) | 0.5 (≈ 0.213 µM) | 8 (≈ 3.41 µM) | <1 |  |  |  | 
2 | CC(C)C[C@@H]1NC(=O)[C@@H](CC(C)C)NC(=O)[C@H](CCN)NC(=O)[C@@H](NC(=O)[C@H](CCN)NC(=O)[C@@H](NC(=O)[C@H](CCN)NC(=O)CC[C@@H]2NC(=O)[C@H](CCN)NC(=O)[C@H](C(C)C)NC(=O)[C@@H](NC(=O)[C@@H](O)C(C)C)CSSC[C@@H](C(=O)N[C@@H](Cc3ccc(O)cc3)C(=O)NCCO)NC(=O)[C@H](C(C)(C)C)NC(=O)[C@H](CO)NC(=O)[C@H](Cc3c[nH]c4ccccc34)NC(=O)[C@H](CCO)NC(=O)[C@@H](CCN)NC2=O)[C@@H](C)O)CCNC(=O)[C@H]([C@@H](C)O)NC(=O)[C@H](CCN)NC(=O)[C@H](CCN)NC1=O [Ex. 69] (I: H-[Hiv]CV[Dab]E[dDab][hSer]WS[Tle]CY-NHCH2CH2OH / II: [Dab]T[Dab][Dab][Dab][dL]L[Dab][Dab]T; disulfide I:2-I:11; amide I:5-II:N; lactam II:4-II:C) | 0.0625 (≈ 0.0254 µM) | 0.0625 (≈ 0.0254 µM) | 0.125 (≈ 0.0509 µM) | 0.0625 (≈ 0.0254 µM) | 0.0625 (≈ 0.0254 µM) | 0.125 (≈ 0.0509 µM) | 0.0625 (≈ 0.0254 µM) | 0.125 (≈ 0.0509 µM) | 2 |  |  |  | 
3 | CC(=O)N[C@H](C(=O)N[C@H]1CSSC[C@@H](C(=O)N[C@@H](CO)C(=O)OC(C)C)NC(=O)[C@H](C(C)(C)C)NC(=O)[C@H](CO)NC(=O)[C@H](Cc2c[nH]c3ccccc23)NC(=O)[C@H](CO)NC(=O)[C@@H](CCN)NC(=O)[C@H](CCC(=O)N[C@@H](CCN)C(=O)N[C@H](C(=O)N[C@@H](CN)C(=O)N[C@H]2CCNC(=O)[C@H]([C@@H](C)O)NC(=O)[C@H](CCN)NC(=O)[C@H](CCN)NC(=O)[C@H](CC(C)C)NC(=O)[C@@H](CC(C)C)NC(=O)[C@H](CCN)NC2=O)[C@@H](C)O)NC(=O)[C@H](CN)NC(=O)[C@H](Cc2ccc(O)cc2)NC1=O)C(C)C [Ex. 122] (I: Ac-VCY[Dap]E[dDab]SWS[Tle]CS-OiPr / II: [Dab]T[Dap][Dab][Dab][dL]L[Dab][Dab]T; disulfide I:2-I:11; amide I:5-II:N; lactam II:4-II:C) | 0.25 (≈ 0.102 µM) | 1 (≈ 0.41 µM) | 0.5 (≈ 0.205 µM) | 0.5 (≈ 0.205 µM) | 4 (≈ 1.64 µM) | 2 (≈ 0.819 µM) | 0.25 (≈ 0.102 µM) | 2 (≈ 0.819 µM) | 1 |  |  |  | 
4 | CC(C)C[C@@H]1NC(=O)[C@@H](CC(C)C)NC(=O)[C@H](CCN)NC(=O)[C@@H](NC(=O)[C@H](CCN)NC(=O)[C@H](CO)NC(=O)[C@H](CCN)NC(=O)CC[C@@H]2NC(=O)[C@H](CCN)NC(=O)[C@H](Cc3ccc(O)cc3)NC(=O)[C@@H](NC(=O)[C@@H](O)C(C)C)CSSC[C@@H](C(=O)N[C@H](CO)[C@@H](C)O)NC(=O)[C@H](C(C)(C)C)NC(=O)[C@H](CO)NC(=O)[C@H](Cc3c[nH]c4ccccc34)NC(=O)[C@H](CCO)NC(=O)[C@@H](CCN)NC2=O)CCNC(=O)[C@H]([C@@H](C)O)NC(=O)[C@H](CCN)NC(=O)[C@H](CCN)NC1=O [Ex. 60] (I: H-[Hiv]CY[Dab]E[dDab][hSer]WS[Tle]C[Thr(ol)] / II: [Dab]S[Dab][Dab][Dab][dL]L[Dab][Dab]T; disulfide I:2-I:11; amide I:5-II:N; lactam II:4-II:C) | 0.0625 (≈ 0.0262 µM) | 0.125 (≈ 0.0524 µM) | 0.125 (≈ 0.0524 µM) | 0.125 (≈ 0.0524 µM) | 0.125 (≈ 0.0524 µM) | 4 (≈ 1.68 µM) | 0.0625 (≈ 0.0262 µM) | 0.125 (≈ 0.0524 µM) | <1 |  |  |  | 
5 | CC(=O)N[C@H](C(=O)N[C@H]1CSSC[C@@H](C(=O)N[C@@H](CO)C(N)=O)NC(=O)[C@H](C(C)C)NC(=O)[C@H](CO)NC(=O)[C@H](Cc2c[nH]c3ccccc23)NC(=O)[C@H](CCC(=O)N[C@@H](CCN)C(=O)N[C@H](C(=O)N[C@@H](CN)C(=O)N[C@H]2CCNC(=O)[C@H]([C@@H](C)O)NC(=O)[C@H](CCN)NC(=O)[C@H](CCN)NC(=O)[C@H](CC(C)C)NC(=O)[C@@H](CC(C)C)NC(=O)[C@H](CCN)NC2=O)[C@@H](C)O)NC(=O)[C@@H](CCN)NC(=O)CNC(=O)[C@H](CO)NC(=O)[C@H](Cc2ccc(O)cc2)NC1=O)C(C)C [Ex. 357] (I: Ac-VCYSG[dDab]EWSVCS-NH2 / II: [Dab]T[Dap][Dab][Dab][dL]L[Dab][Dab]T; disulfide I:2-I:11; amide I:7-II:N; lactam II:4-II:C) |  | 0.25 (≈ 0.106 µM) |  |  | 0.5 (≈ 0.212 µM) | 0.125 (≈ 0.0531 µM) |  | 0.5 (≈ 0.212 µM) | <1 | 0.0625 | 0.25 | 0.125 | 0.0625
6 | CC(=O)N[C@H](C(=O)N[C@H]1CC(=O)NCC[C@@H](C(=O)N[C@@H](CO)C(N)=O)NC(=O)[C@H](C(C)C)NC(=O)[C@H](CO)NC(=O)[C@H](Cc2c[nH]c3ccccc23)NC(=O)CNC(=O)[C@@H](CCN)NC(=O)[C@H](CCC(=O)N[C@@H](CCN)C(=O)N[C@H](C(=O)N[C@@H](CN)C(=O)N[C@H]2CCNC(=O)[C@H]([C@@H](C)O)NC(=O)[C@H](CCN)NC(=O)[C@H](CCN)NC(=O)[C@H](CC(C)C)NC(=O)[C@@H](CC(C)C)NC(=O)[C@H](CCN)NC2=O)[C@@H](C)O)NC(=O)[C@H](CO)NC(=O)[C@H](Cc2ccc(O)cc2)NC1=O)C(C)C [Ex. 292] (I: Ac-VDYSE[dDab]GWSV[Dab]S-NH2 / II: [Dab]T[Dap][Dab][Dab][dL]L[Dab][Dab]T; lactam I:2-I:11, II:4-II:C; amide I:5-II:N) | 0.0625 (≈ 0.0266 µM) | 0.5 (≈ 0.213 µM) | 0.125 (≈ 0.0532 µM) | 0.25 (≈ 0.106 µM) | 1 (≈ 0.426 µM) | 1 (≈ 0.426 µM) | 0.125 (≈ 0.0532 µM) | 4 (≈ 1.7 µM) | <1 |  |  |  | 
7 | CC(C)C[C@@H]1NC(=O)[C@@H](CC(C)C)NC(=O)[C@H](CCN)NC(=O)[C@@H](NC(=O)[C@H](CN)NC(=O)[C@@H](NC(=O)[C@H](CCN)NC(=O)CC[C@@H]2NC(=O)[C@H](CCN)NC(=O)[C@H](Cc3ccc(O)cc3)NC(=O)[C@@H](NC(=O)[C@@H](O)C(C)C)CSSC(C)(C)[C@@H](C(=O)N[C@@H](CO)C(N)=O)NC(=O)[C@H](C(C)C)NC(=O)[C@H](CO)NC(=O)[C@H](Cc3c[nH]c4ccccc34)NC(=O)[C@H](CO)NC(=O)[C@@H](CCN)NC2=O)[C@@H](C)O)CCNC(=O)[C@H]([C@@H](C)O)NC(=O)[C@H](CCN)NC(=O)[C@H](CCN)NC1=O [Ex. 301] (I: H-[Hiv]CY[Dab]E[dDab]SWSV[Pen]S-NH2 / II: [Dab]T[Dap][Dab][Dab][dL]L[Dab][Dab]T; disulfide I:2-I:11; amide I:5-II:N; lactam II:4-II:C) |  | 0.25 (≈ 0.105 µM) |  |  | 0.125 (≈ 0.0524 µM) | 0.125 (≈ 0.0524 µM) |  | 0.5 (≈ 0.21 µM) | 2 | 0.0625 | 0.125 | 0.125 | 0.0625
